Test results published in patent EP4653006A1, “NOVEL MIXTURE OF ACTIVE INGREDIENTS, COMPOSITIONS CONTAINING THEM, AND THEIR USE AGAINST ALLERGY AND/OR INFLAMMATION” (Global Pharmacies Partner S.R.L. in Forma Abbreviata G.P.P. …, priority 2024, dated 2025).

Legend:
RBL-2H3 cells = test: degranulation (β-hexosaminidase release) in sensitized/stimulated RBL-2H3 cells; type: cell-based, rat; conditions: positive control 20 µM
Experimental: The antiallergic activity of the tested sample of mixture M was evaluated by measuring its ability to prevent degranulation processes in a rat leukemia cell line (RBL-2H3), widely used as a model simulating mast cells in immunological and allergological studies.
(§1) The RBL-2H3 cells were first sensitized and then stimulated to induce degranulation.
The test was conducted on RBL-2H3 cells grown in DMEM (Dulbecco's modified Eagle medium) containing 10% fetal bovine serum (FBS) and 1% antibiotics (penicillin and streptomycin) and incubated in standard culture conditions (37°C, 5% CO2). […]
The medium was then recovered and separated from the cells and incubated with 4-nitrophenyl-N-acetyl-β-D-glucosamide. The reaction was stopped with carbonate buffer and the absorbance was measured by spectrophotometric reading at 405 nm. Degranulation was calculated as the percentage of β-hexosaminidase relative to non-sensitized (NS) cells as follows: Degranulation (%) = (ODX)/(ODNS)⋅100 [formula]
The measured absorbance (optical density, OD) is directly proportional to the amount of β-hexosaminidase present in the analyzed fluids, which in turn correlates positively with the levels of histamine released during the degranulation phase and is therefore an indicative marker of the degranulation process. […] The values are expressed as means ± standard deviation. […]

TNFα = TNFα release by ELISA in sensitized/stimulated RBL-2H3 cells; type: cell-based, rat; conditions: positive control 20 µM
Experimental: The anti-inflammatory action was instead evaluated, always in the same cell line, by measuring the ability of the sample to inhibit the release of tumor necrosis factor alpha (TNFα).
as §1
The test was conducted on RBL-2H3 cells grown in DMEM (Dulbecco's modified Eagle medium) containing 10% fetal bovine serum (FBS) and 1% antibiotics (penicillin and streptomycin) and incubated in standard culture conditions (37°C, 5% CO2). RBL-2H3 cells are widely used in allergy and immunology research, as, like mast cells, they express FCεRI and, following cross-linking between IgE bound to FCεRI and allergens, they undergo degranulation. In this way, therefore, they simulate the behavior of mast cells and basophils in their response to an immunological stimulus.
The supernatant recovered from the cells was also used for the dosage of TNFα performed by ELISA (Enzyme-Linked Immunosorbent Assay), a very widespread biochemical technique used for the quantification of proteins and peptides. In an ELISA assay, a specific […] for TNFα is immobilized on a solid surface (the bottom of a well) to which the assay medium is added. Detection is done by means of a biotinylated secondary antibody and then reacted with streptavidin-HRP. The colorimetric reaction is proportional to the amount of TNFα present. The results are read by spectrophotometer at 450 nm. The values obtained were then interpolated into a standard curve of TNFα.
The absorbance (optical density, OD) measured at 450 nm is directly proportional to the amount of TNFα produced by the tissues. To calculate the concentrations of TNFα, the OD values obtained were interpolated into a standard curve of TNFα. The percentages were calculated with respect to the non-sensitized and non-stimulated cells (NS). The values are expressed as means ± standard deviation. Statistical processing of the data was performed by Student's t-test. Values of p<0.05 are considered significant. […]

Question: C=C1CC[C@H]2C(=C)CC[C@H]3C(=C)C(=O)O[C@@H]3[C@@H]12 [PC, Dehydrocostolactone] was tested. Which “protection (% vs NC), reduction in degranulation” value (RBL-2H3 cells) did it give?
Answer: The value was 80.8%.

Question: What about the “β-hexosaminidase (% vs NS)” value (RBL-2H3 cells; anti-DNP IgE / DNP-HSA, NC = 1,274.6) of the same molecule?
Answer: The value was 244.8%.

Question: And the “protection (% vs NC), reduction in TNFα release” value (TNFα)?
Answer: Its value is 19.5%.

Question: And the “TNFα (% vs NS)” value (TNFα; NC = 227.8)?
Answer: The value was 183.4%.

Question: What about the “TNFα” value (TNFα; NC = 248.8) of the same molecule?
Answer: The value was 200.3 pg/mL.
